Experiments:
PRMT5 [1] = target: T1, PRMT5 (Homo sapiens, UniProt O14744); test: PRMT5 biochemical IC50 assay with SAM as cofactor; conditions: PRMT5, SAM as cofactor; read-out: SAM IC50
T1 construct: purchased Viva (custom protein)

PRMT5 [2] = target: T1, PRMT5; test: PRMT5 biochemical IC50 assay with MTA as cofactor; conditions: PRMT5, MTA as cofactor; read-out: MTA IC50
[3] = test system: HAP1 MTAP-deleted cell line; test: SDMA in-cell western assay, HAP1 MTAP-deleted; type: cell-based; conditions: for IC50: Homo sapiens, HAP1, SDMA in-cell western, HAP1 MTAP-deleted; for MTAP intact/deleted ratio: SDMA in-cell western
Method in brief: (§1)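 Compounds were tested in HAP1 cells differing only in MTAP status (endogenous expression versus null). Cellular SDMA levels were then measured by in-cell western, giving an IC50 in each background.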

[4] = test system: HAP1 MTAP-intact cell line; test: SDMA in-cell western assay, HAP1 MTAP-intact; type: cell-based; conditions: Homo sapiens, HAP1, SDMA in-cell western, HAP1 MTAP-intact; read-out: MTAP HAP1 intact IC50
Method in brief: as §1

PRMT5 [5] = target: T1, PRMT5; test: PRMT5 biochemical IC50 assay with no cofactor; conditions: PRMT5, no cofactor
Excerpt: Table 1 indicates IC50 values (μM) against PRMT5 for exemplary compounds in the presence of SAM as cofactor, with no cofactor, and with MTA as cofactor, respectively (columns 4-6). […] Ki values can be calculated from the IC50 values as described in the Examples section. As detailed in the Examples section, for the assay performed in the presence of SAM, IC50=Ki×1.5 (Ki=IC50/1.5).

[6] = test system: HAP1 MTAP-deleted cell line; test: Viability assay, MTAP-deleted cell line; type: cell-based; conditions: Homo sapiens, read-out: HAP1 MTAP deleted viability
Excerpt: Table 1 additionally indicates IC50 values in a viability assay for the MTAP-deleted cell line (column 10), indicating the effect of treatment with compound on cell survival.

[7] = read-out: HAP1 MTAP deleted IC50
[8] = HAP1, viability assay, MTAP-deleted cell line
[9] = read-out: HAP 1 MTAP deleted IC50
[10] = IC50 ratio HAP1 MTAP-intact / HAP1 MTAP-deleted
[11] = read-out: No Cofactor/ rel IC50
[12] = HAP1, viability, HAP1 MTAP-deleted cell line
[13] = HAP1, viability assay, HAP1 MTAP-deleted
[14] = HAP1, viability IC50, MTAP-deleted cell line
[15] = IC50 ratio HAP1 MTAP-intact vs HAP1 MTAP-deleted

T1 sequence (O14744 whole entry): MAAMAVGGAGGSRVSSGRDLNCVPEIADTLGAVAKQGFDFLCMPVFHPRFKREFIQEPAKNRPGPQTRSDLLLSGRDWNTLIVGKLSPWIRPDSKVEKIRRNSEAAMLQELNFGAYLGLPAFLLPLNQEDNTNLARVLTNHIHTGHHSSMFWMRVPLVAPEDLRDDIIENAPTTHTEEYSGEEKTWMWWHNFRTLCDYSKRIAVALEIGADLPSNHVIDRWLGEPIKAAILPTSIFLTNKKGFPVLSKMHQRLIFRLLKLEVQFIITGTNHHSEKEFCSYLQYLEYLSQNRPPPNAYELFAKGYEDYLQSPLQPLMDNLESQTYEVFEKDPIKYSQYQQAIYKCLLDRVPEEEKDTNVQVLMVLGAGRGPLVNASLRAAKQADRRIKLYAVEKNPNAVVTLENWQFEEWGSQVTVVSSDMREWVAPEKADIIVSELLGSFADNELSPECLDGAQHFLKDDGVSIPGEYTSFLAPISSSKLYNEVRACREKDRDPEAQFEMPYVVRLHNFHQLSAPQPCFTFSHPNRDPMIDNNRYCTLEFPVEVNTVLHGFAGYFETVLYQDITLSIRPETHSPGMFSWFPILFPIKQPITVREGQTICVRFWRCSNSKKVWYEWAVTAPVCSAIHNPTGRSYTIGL
T1 sequence (Q9BQA1 whole entry partner): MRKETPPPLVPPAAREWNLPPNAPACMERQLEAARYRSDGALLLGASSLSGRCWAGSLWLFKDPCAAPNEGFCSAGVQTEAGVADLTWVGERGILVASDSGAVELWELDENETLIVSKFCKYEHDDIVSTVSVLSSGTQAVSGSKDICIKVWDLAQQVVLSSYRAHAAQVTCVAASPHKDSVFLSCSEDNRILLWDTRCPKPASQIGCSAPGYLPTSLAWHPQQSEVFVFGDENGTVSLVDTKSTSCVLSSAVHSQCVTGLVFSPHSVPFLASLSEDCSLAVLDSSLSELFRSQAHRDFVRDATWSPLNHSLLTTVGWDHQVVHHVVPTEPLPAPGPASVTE

| IC50 (PRMT5 [1]) [nM] | IC50 (PRMT5 [2]) [nM] | IC50 [3, 7] [nM] | IC50 [4] [nM] | IC50 (PRMT5 [5]; read-out: No Cofactor/rel IC50) [nM] | IC50 [3, 9] [nM] | IC50 (PRMT5 [5]; [11]) [nM] | Compound | IC50 [6, 8] [nM] | MTAP intact/deleted ratio [3, 10] | IC50 [6, 12] [nM] | IC50 [6, 13] [nM] | IC50 [6, 14] [nM] | MTAP intact/deleted ratio [3, 15] |
| --- | --- | --- | --- | --- | --- | --- | --- | --- | --- | --- | --- | --- | --- |
| > 500 | > 500 | > 1000 | > 1000 | > 500 |  |  | CCc1cc(NC(=O)C(=O)N2C[C@H](C)CC[C@H]2c2ccc(N3CCOC4(CN(C)C4)C3)cc2)cnc1N (single isomer, unassigned) [Compound 1150] | > 10000 |  |  |  |  |  |
| > 500 | > 500 |  | > 1000 | > 500 | > 1000 |  | Cc1cc(NC(=O)C(=O)N2C[C@H](C)CC[C@H]2c2ccc3sc(C(F)(F)F)nc3c2)cnc1N (single isomer, unassigned) [Compound 959] | > 10000 | B (an IC50 ratio greater than or equal to 3 fold but lower than 10 fold) |  |  |  |  |
| 50 to 500 | < 50 |  | 100 to 1000 |  | < 100 | < 50 | CCc1cc(NC(=O)C(=O)N2C[C@@H](C)CC[C@@H]2c2ccc(N3CCN(C)[C@@H](C)C3)nc2)cnc1N (single isomer, unassigned) [Compound 1289] |  | A (an IC50 ratio greater than or equal to 10 fold) | < 1000 |  |  |  |
| > 500 | > 500 | > 1000 | > 1000 | > 500 |  |  | C[C@@H]1CC[C@@H](C2CCC2)N(C(=O)C(=O)Nc2cncc(C(N)=O)c2)C1 (single isomer, unassigned) [Compound 216] | > 10000 | C (an IC50 ratio of less than 3 fold) |  |  |  |  |
| 50 to 500 | 50 to 500 |  | > 1000 |  | > 1000 | 50 to 500 | C[C@@H]1CC[C@@H](c2cccc(C(N)=O)c2)N(C(=O)C(=O)Nc2cncc(C(N)=O)c2)C1 (racemic) [Compound 125, rac-5-{2-[(2R,5S)-2-(3-Carbamoylphenyl)-5-methylpiperidin-1-yl]-2-oxoacetamido}pyridine-3-carboxamide] | > 10000 | B (an IC50 ratio greater than or equal to 3 fold but lower than 10 fold) |  |  |  |  |
| 50 to 500 | < 50 |  | 100 to 1000 |  | < 100 | < 50 | CCc1cc(NC(=O)C(=O)N2C[C@@H](C)CC[C@@H]2c2ccc3sc(CCOC)nc3c2)cnc1N (single isomer, unassigned) [Compound 1386] |  | A (an IC50 ratio greater than or equal to 10 fold) | < 1000 |  |  |  |
| 50 to 500 | < 50 | 100 to 1000 | > 1000 | < 50 |  |  | C[C@H]1CC[C@H](c2ccc3[nH]c(=O)ccc3c2)N(C(=O)C(=O)Nc2cncc(C(N)=O)c2)C1 (single isomer, unassigned) [Compound 809] |  | A (an IC50 ratio greater than or equal to 10 fold) |  | 1000 to 10000 |  |  |
| 50 to 500 | < 50 |  | > 1000 | < 50 | < 100 |  | COc1cc([C@@H]2CC[C@@H](C)CN2C(=O)C(=O)Nc2cncc(C(N)=O)c2)ccn1 (single isomer, unassigned) [Compound 532] |  | A (an IC50 ratio greater than or equal to 10 fold) |  |  | < 1000 |  |
| 50 to 500 | 50 to 500 |  | > 1000 | 50 to 500 | 100 to 1000 |  | CNc1ccc([C@@H]2CCC[C@H](C)N2C(=O)C(=O)Nc2cncc(C(N)=O)c2)cn1 (racemic) [Compound 561, 5-[[2-[(2S,6S)-2-methyl-6-[6-(methylamino)-3-pyridyl]-1-piperidyl]-2-oxo-acetyl]amino]pyridine-3-carboxamide] |  | A (an IC50 ratio greater than or equal to 10 fold) |  |  | > 10000 |  |
| < 50 | < 50 | < 100 | < 100 | < 50 |  |  | COc1cc(NC(=O)C(=O)N2C[C@@H](C)CC[C@@H]2c2ccc3sc(C4CCN(C)CC4)nc3c2)cnc1N [Compound 1203, N-(6-amino-5-methoxypyridin-3-yl)-2-((2R,5)-5-methyl-2-(2-(1-methylpiperidin-4-yl)benzo[d]thiazol-5-yl)piperidin-1-yl)-2-oxoacetamide] | < 1000 |  |  |  |  | A (an IC50 ratio greater than or equal to 10 fold) |
| > 500 | > 500 | > 1000 | > 1000 | > 500 |  |  | CCc1cc(NC(=O)C(=O)N2C[C@@H](C)CC[C@@H]2c2ccc(C(N)=O)s2)cnc1N (single isomer, unassigned) [Compound 845] |  | B (an IC50 ratio greater than or equal to 3 fold but lower than 10 fold) |  | > 10000 |  |  |
| 50 to 500 | 50 to 500 |  | 100 to 1000 | 50 to 500 | < 100 |  | Cc1cc(NC(=O)C(=O)N2C[C@H](C)CC[C@H]2c2cccc(Br)c2)cnc1N (racemic) [Compound 600, N-(6-amino-5-methyl-3-pyridyl)-2-[(2S,5R)-2-(3-bromophenyl)-5-methyl-1-piperidyl]-2-oxo-acetamide] |  | A (an IC50 ratio greater than or equal to 10 fold) |  |  | < 1000 |  |
| 50 to 500 | < 50 | < 100 | > 1000 | < 50 |  |  | CCc1cc(NC(=O)C(=O)N2C[C@@H](C)CC[C@@H]2c2ccc(C)nc2)cnc1N (single isomer, unassigned) [Compound 784] |  | A (an IC50 ratio greater than or equal to 10 fold) |  | < 1000 |  |  |
| 50 to 500 | < 50 | 100 to 1000 | > 1000 | 50 to 500 |  |  | CC(=O)Nc1ccc([C@@H]2CC[C@@H](C)CN2C(=O)C(=O)Nc2cnc(N)c(C)c2)s1 (single isomer, unassigned) [Compound 732] |  | A (an IC50 ratio greater than or equal to 10 fold) |  | 1000 to 10000 |  |  |
| 50 to 500 | < 50 | < 100 | > 1000 | < 50 |  |  | CCc1cc(NC(=O)C(=O)N2C[C@H](C)CC[C@H]2c2ccccc2)cnc1N (single isomer, unassigned) [Compound 736] |  | A (an IC50 ratio greater than or equal to 10 fold) |  | < 1000 |  |  |
| 50 to 500 | 50 to 500 | 100 to 1000 | > 1000 | > 500 |  |  | Cc1cc(NC(=O)C(=O)N2[C@@H](C)CCC[C@H]2c2ccccc2)cnc1N (single isomer, unassigned) [Compound 417] | > 10000 | B (an IC50 ratio greater than or equal to 3 fold but lower than 10 fold) |  |  |  |  |
| < 50 | < 50 | < 100 | < 100 | < 50 |  |  | CCc1cc(NC(=O)C(=O)N2C[C@@H](C)CC[C@@H]2c2ccc3sc(C45CCC(CC4)N(C)C5)nc3c2)cnc1N [Compound 1217] | < 1000 |  |  |  |  | B (an IC50 ratio greater than or equal to 3 fold but lower than 10 fold) |
| < 50 | < 50 |  | < 100 |  | < 100 | < 50 | CCc1cc(NC(=O)C(=O)N2C[C@@H](C)CC[C@@H]2c2ccc3sc(C4CCN(C)C4)nc3c2)cnc1N (stereo partly shown) [Compound 1383] |  | A (an IC50 ratio greater than or equal to 10 fold) | < 1000 |  |  |  |
| 50 to 500 | < 50 | < 100 | > 1000 | 50 to 500 |  |  | C[C@H]1CC[C@H](C2CCC2)N(C(=O)C(=O)Nc2cncc(C(N)=O)c2)C1 (single isomer, unassigned) [Compound 211] | 1000 to 10000 | A (an IC50 ratio greater than or equal to 10 fold) |  |  |  |  |
| 50 to 500 | < 50 | 100 to 1000 | > 1000 | 50 to 500 |  |  | C[C@H]1CCC[C@@H](c2ccccc2)N1C(=O)C(=O)Nc1cncc(C(N)=O)c1 (single isomer, unassigned) [Compound 274] | 1000 to 10000 | A (an IC50 ratio greater than or equal to 10 fold) |  |  |  |  |

Reference: patent US11999727B2 (Tango Therapeutics, Inc., priority 2020, dated 2024)
